The values below come from patent publication US12565665B2, “Compositions and methods for controlled mRNA translation and stability” (TRUSTEES OF BOSTON UNIVERSITY, priority 2022, dated 2026).

What all share (assay type): cell-based, human
The test system of experiment [1] is UAG-MS2 editing reporter. The experiment in a line: Stop codon editing reporter (mCherry / mNeonGreen) co-transfected with ADAR variants, flow cytometry (median mNeonGreen to mCherry). Particulars: n=1. The source says: For the reporter system, the inventors used the fluorescent protein-epitope tag tandem fusions of mCherry-FLAG and HA-mNeonGreen as the upstream and downstream coding regions. Without DD editing activity, translation is terminated after mCherry-FLAG. Coexpression with MCP-ADAR2-DD was hypothesized to lead to binding of MCP-DD, stop codon UAG editing to UIG, and expression of mNeonGreen (FIG. 1B).
(§1) HEK 293 FT cells were co-transfected with plasmids expressing the reporter containing 2 UAG stop codons in the hairpin and a pcDNA3 construct encoding a fusion protein composed of MCP, ADAR2-DD (E488Q), and TagBFP.
Two days later, fluorescence microscopy images were taken of the cell populations. […] The inventors repeated the experiment and analyzed the samples by flow-cytometry.
The inventors transiently co-transfected HEK 293 FT cells with the mCherry-mNeonGreen reporter, MCP-ADAR2-DD variants containing different configurations of ALFA-tag insertions and NbALFA fusions, and uncaging constructs containing miRFP670 fused to ALFA. Without wishing to be bound by theory, it was hypothesized that the intramolecular interaction would inhibit the ADAR2-DD, but that the ALFA tag on the miRFP670 would displace the lower strength ALFA variants (PE and 78), and perhaps at high enough concentrations displace the intramolecular ALFA, and lead to increased editing.
The inventors then made an ADAR-DD variant with an inserted TEV protease cut site (amino acids ENLYFQG, SEQ ID NO: 286) between the C-terminus of ADAR2-DD and the N-terminus of SpyCatcher (FIG. 5C). The inventors co-transfected HEK 293 FT cells with the reporter construct, the ADAR-DD TEVcs variant, and the TEV protease and 48 hours later analyzed the transfected cells via flow cytometry (FIG. 5D-5E).
Mutated versions were then cloned and co-transfected with an editing reporter in the absence and presence of A-1331852, and absolute background and fold change upon drug addition were determined by flow cytometry (see e.g., FIG. 22d and table 11).

The subject of experiment [2] is mRNA reporters containing different number of stop codons and/or MS2 elements. The experiment is described as follows: Stop codon editing assay by Western blot. Particulars: HEK293FT cells; reporters with different numbers of stop codons and RNA elements.
Description: as §1

In another experiment the test system is GFP-GPI reporter. The experiment is described as follows: AUA to AUI editing creating upstream in-frame signal sequence and HA tag, live imaging and HA staining. From the text:
To test this, a reporter construct was designed that contained: an MS2-A editable AUA start codon upstream of the murine IgGκ signal sequence and HA epitope tag (SS-HA), an in frame AUG start codon, GFP, and the glycosylphosphatidylinositol (GPI) anchor sequence from Thymocyte differentiation antigen 1 (GPI in diagram) (see e.g., FIG. 27a). With this reporter, in the absence of editing, the majority of the translated product will be from the AUG codon directly upstream of GFP. This will lead to the translation product residing in the cytoplasm with a non-functional GPI anchor (as this post-translational modification (PTM) must occur in the endoplasmic reticulum (ER) lumen). Upon ADAR editing of the upstream AUA to AUI, translation will initiate upstream of the signal sequence, leading to co-translational translocation of HA-GFP-GPI into the ER lumen, the addition of the GPI anchor PTM, and presentation of HA-GFP on the plasma membrane (see e.g., FIG. 27b). With this construct, the editing can be monitored by either by microscopy (looking for ER & plasma membrane localization) or directly by immunostaining for the HA-tag.
HEK cells were co-transfected with the GFP-GPI reporter and either filler DNA, MCP-dADAR, or MCP-ADAR. A GFP-GPI with a functional start codon before the secretion signal was also transfected as a positive control (GFP-GPI Control). One day after transfection, HEK cells were imaged live, and then fixed and stained for HA tag with a primary anti-HA antibody and a secondary antibody that was conjugated to ALEXAFLUOR 647 (AF647).

Experiment [3] deals with UAG-MS2 editing reporter. The experiment in a line: Stop codon editing reporter (mCherry / mNeonGreen) co-transfected with ADAR variants, fluorescence microscopy / ImageJ quantification. Particulars: HEK 293 FT cells co-transfected with reporter containing 2 UAG stop codons in the hairpin; two days after transfection.
The test system of experiment [4] is Non-Stop-Decay reporter construct. The experiment is described as follows: Non-stop decay OFF-switch reporter (dTomato-BiCMV-EGFPd2). Particulars: biCMV reporter with 2 UAG stop codons; 48-hours post-transfection. From the text: In order to do so, the inventors designed a synthetic transcript (FIG. 2A) where there is an open reading frame (green), 1 or more stop codons in an RNA-hairpin (dark gray), a specific RNA element (light gray), and a 3′UTR with no downstream stop codons prior to the polyadenylate (polyA) tail. The inventors created a reporter plasmid that contained a bidirectional CMV driving the expression dTomato on one transcript and EGFPd2, an editable stop codon, an MS2 operator, and a mutated rabbit-β-globin 3′UTR/poly A signal sequence lacking additional stop codons on the other transcript (FIG. 2B). In the absence of ADAR-DD activity, both dTomato and EGFPd2 should be translated and expressed. However, coexpression of MCP-ADAR2 should lead to editing of the only in-frame stop codon and the initiation of an endogenous process called non-stop decay, whereby the translating ribosome stalls on the polyA-tail and recruits Ski7 followed by exonucleases to destroy the mRNA (FIG. 2C). In this process, proteosomal degradation of the nascent, unreleased polypeptide also occurs. […]
As a final test, the inventors used the MS1(117A)/Mcl-1 variant with the dTomato-BiCMV-EGFPd2 reporter plasmid (FIG. 2B), which should lose EGFPd2 fluorescence with ADAR editing of the final stop codon.

In the next experiment the test system is editable AUG reporters. The experiment in a line: Destruction of an AUG start codon to IUG, EGFPd2/dTomato reporter, flow cytometry. Particulars: 48 hours post-transfection; n=3. From the text: To test this, an ADAR substrate was designed similar to the substrates tested above, but with an AUG codon in a dsRNA hairpin with a mismatch to promote the deamination of the correct adenine (see e.g., FIG. 28b). This scheme was similarly tested with both the high affinity MS2-C and lower affinity MS2-A variants by cloning these substrates into a pcDNA3 vector with a bidirectional CMV driving the expression of dTomato and EGFPd2 (see e.g., FIG. 28c).
HEK cells were co-transfected with the two different reporter constructs (MS2-C and MS2-A) and cither filler DNA, MCP-dADAR, or MCP-ADAR. 48 hours post-transfection, cells were lifted and analyzed by flow cytometry. Transfected cells were gated by dTomato, and the median EGFPd2-to-dTomato ratio for the population was calculated per replicate (n=3) by FLOWJO. 2-Way ANOVA was performed to determine significance.

For the substance “MCP-linker-ADAR2(E488Q)-TagBFP [MCP-ADAR]”, the “Fold Change” value in the experiment with UAG-MS2 editing reporter [1] (1 μM vs 0 μM A-1331852, flow cytometry) came out at 1.03. In addition, in the experiment on UAG-MS2 editing reporter [1] (HEK cells co-transfected with ADAR reporter and ADAR variant, 0 μM A-1331852, two days after transfection, gated by BFP), the “Flow Cytometry Values, 0 μM (median of the ratio of mNeonGreen to mCherry)” value is 0.9853. For the same substance, in the experiment with UAG-MS2 editing reporter [1] (HEK cells co-transfected with ADAR reporter and ADAR variant, 1 μM A-1331852, two days after transfection, gated by BFP), the “Flow Cytometry Values, 1 μM (median of the ratio of mNeonGreen to mCherry)” value was found to be 1.0147. In addition, in experiment [2], the “off-target editing of stop-codon reporters, Western blot (HA-mNeonGreen)” value is “Almost no off-target editing”. The “HA tag staining of cells with AUA construct” value with GFP-GPI reporter (fixed, permeabilized, anti-HA and AF647 secondary) is given as “robust staining”. For the same substance, in the experiment with GFP-GPI reporter (one day after transfection), the “cellular distribution of GFP from AUA-SS-GFP-GPI, live imaging” value was “looked very similar”. In addition, in the experiment with UAG-MS2 editing reporter [3], the “mNeonGreen expression, fluorescence microscopy” value was “mNeonGreen robustly expressed”. Besides, the “EGFPd2 expression relative to catalytically inactive DD, fluorescence microscopy” value in experiment [4] was “greatly decreased EGFPd2 expression levels”. In the experiment with editable AUG reporters, the “relative EGFPd2 levels, active vs inactive ADAR, MS2-A based AUG construct” value is “further, significant decrease in relative EGFPd2 levels” and the “translational efficiency, MS2-A based AUG construct” value is “significant decrease in translational efficiency”.
